# Results from ChEMBL document CHEMBL5696442, “Discovery of type II inhibitors of TGFβ-activated kinase 1 (TAK1) and mitogen-activated protein kinase kinase kinase kinase 2 (MAP4K2)” (J Med Chem, 2015).
# Active and inactive are the calls of the source. The calls are words filed in the database; no cut-off is given here.
# Legend:
# [1] = target: Receptor tyrosine-protein kinase erbB-3 (Homo sapiens) (UniProt P21860); experiment: Inhibition of HER3/ErbB3 ACT labeling site in human A-375 cells at 5 uM by KiNativ Profiling analysis relative to control; format: cell-based
# [2] = target: T1, Kinase suppressor of Ras 1 (Homo sapiens) (UniProt Q8IVT5); experiment: Inhibition of KSR1 ACT labeling site harbouring SKNVFYDNGKVVITDFGLFGISGVVR in human A-375 cells at 5 uM by KiNativ Profiling analysis relative to control; format: cell-based
# T1 sequence (whole entry): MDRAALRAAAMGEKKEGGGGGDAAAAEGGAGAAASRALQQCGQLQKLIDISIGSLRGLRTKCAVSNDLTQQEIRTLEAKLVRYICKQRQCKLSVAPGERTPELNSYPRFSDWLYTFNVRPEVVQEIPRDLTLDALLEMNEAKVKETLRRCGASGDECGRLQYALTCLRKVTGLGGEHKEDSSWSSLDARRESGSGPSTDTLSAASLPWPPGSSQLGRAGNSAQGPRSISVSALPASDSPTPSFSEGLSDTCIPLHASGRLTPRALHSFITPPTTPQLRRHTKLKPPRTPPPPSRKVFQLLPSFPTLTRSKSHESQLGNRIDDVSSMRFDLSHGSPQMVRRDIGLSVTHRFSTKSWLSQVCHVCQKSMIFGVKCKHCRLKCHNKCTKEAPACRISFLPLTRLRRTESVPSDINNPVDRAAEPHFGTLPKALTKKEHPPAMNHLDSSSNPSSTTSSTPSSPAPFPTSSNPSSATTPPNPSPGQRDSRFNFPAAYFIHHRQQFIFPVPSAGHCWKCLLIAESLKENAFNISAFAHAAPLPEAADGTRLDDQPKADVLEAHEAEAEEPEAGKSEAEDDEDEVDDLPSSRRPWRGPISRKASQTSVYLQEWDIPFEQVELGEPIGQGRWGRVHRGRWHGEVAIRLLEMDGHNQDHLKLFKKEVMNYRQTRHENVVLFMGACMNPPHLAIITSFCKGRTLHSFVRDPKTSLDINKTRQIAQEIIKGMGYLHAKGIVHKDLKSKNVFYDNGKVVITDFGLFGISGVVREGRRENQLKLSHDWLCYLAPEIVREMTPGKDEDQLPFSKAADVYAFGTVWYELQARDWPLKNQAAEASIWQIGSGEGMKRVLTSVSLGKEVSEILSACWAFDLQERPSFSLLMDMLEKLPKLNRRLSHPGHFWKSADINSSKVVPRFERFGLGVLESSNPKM
# [3] = target: Serine/threonine-protein kinase MARK1 (Homo sapiens) (UniProt Q9P0L2); experiment: Inhibition of MARK1 (unknown origin) at 1 uM by Ambit Kinomescan binding assay relative to control; values are per cent of control
# Sequence of Serine/threonine-protein kinase MARK1 (Homo sapiens) (Q9P0L2 whole entry, looked up): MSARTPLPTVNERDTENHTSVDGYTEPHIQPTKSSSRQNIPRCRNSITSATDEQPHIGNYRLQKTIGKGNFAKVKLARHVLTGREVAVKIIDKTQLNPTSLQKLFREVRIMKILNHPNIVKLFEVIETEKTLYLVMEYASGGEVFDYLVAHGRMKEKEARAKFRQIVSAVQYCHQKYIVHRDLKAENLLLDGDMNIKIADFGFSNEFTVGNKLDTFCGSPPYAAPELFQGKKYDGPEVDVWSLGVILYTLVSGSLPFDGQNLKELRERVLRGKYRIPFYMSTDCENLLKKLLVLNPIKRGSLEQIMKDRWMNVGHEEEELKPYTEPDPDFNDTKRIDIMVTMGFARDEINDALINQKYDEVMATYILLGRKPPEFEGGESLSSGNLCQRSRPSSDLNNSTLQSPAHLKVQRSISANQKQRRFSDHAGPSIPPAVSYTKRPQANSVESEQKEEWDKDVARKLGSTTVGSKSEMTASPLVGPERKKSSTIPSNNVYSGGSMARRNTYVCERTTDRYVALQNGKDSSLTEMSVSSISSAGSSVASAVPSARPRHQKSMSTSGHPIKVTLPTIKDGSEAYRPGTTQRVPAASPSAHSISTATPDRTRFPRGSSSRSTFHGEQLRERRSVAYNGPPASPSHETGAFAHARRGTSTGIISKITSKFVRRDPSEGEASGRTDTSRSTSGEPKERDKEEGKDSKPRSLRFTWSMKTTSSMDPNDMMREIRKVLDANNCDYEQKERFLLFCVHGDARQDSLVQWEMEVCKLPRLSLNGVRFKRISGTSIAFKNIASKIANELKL
# [4] = target: Serine/threonine-protein kinase 16 (Homo sapiens) (UniProt O75716); experiment: Inhibition of STK16 (unknown origin) at 1 uM by Ambit Kinomescan binding assay relative to control
# Sequence of Serine/threonine-protein kinase 16 (Homo sapiens) (O75716 whole entry): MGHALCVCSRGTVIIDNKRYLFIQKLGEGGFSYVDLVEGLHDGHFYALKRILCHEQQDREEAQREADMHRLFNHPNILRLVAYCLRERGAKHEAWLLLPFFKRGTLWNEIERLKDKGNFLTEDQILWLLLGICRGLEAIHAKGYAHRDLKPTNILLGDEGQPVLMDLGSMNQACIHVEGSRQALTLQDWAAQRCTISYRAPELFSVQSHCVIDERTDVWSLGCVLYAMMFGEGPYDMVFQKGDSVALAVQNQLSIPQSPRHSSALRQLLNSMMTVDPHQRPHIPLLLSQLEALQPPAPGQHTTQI
# [5] = target: Calcium/calmodulin-dependent protein kinase kinase 2 (Homo sapiens) (UniProt Q96RR4); experiment: Inhibition of CAMKK2 (unknown origin) at 1 uM by Ambit Kinomescan binding assay relative to control; values are per cent of control
# Sequence of Calcium/calmodulin-dependent protein kinase kinase 2 (Homo sapiens) (Q96RR4 2-588 limits assumed): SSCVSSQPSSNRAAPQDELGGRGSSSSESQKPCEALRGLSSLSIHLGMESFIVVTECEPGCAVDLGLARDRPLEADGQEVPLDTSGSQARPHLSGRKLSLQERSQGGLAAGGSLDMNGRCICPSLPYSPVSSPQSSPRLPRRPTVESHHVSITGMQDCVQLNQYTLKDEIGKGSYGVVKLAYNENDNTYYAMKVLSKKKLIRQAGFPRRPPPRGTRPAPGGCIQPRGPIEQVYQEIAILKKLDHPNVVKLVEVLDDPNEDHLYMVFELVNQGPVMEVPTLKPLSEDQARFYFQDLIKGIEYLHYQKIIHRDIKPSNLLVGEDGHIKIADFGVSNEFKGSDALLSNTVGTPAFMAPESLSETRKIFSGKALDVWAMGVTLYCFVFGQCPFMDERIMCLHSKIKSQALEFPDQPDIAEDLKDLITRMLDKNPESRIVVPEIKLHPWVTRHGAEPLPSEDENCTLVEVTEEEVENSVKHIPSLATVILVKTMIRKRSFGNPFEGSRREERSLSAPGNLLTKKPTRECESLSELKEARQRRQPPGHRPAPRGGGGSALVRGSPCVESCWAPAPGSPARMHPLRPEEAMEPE
# [6] = target: Cyclin-dependent kinase 17 (Homo sapiens) (UniProt Q00537); experiment: Inhibition of PCTAIRE2 K2 labeling site in human Huh-7 cells at 10 uM by KiNativ Profiling analysis relative to control; format: cell-based
# Sequence of Cyclin-dependent kinase 17 (Homo sapiens) (Q00537 whole entry, looked up): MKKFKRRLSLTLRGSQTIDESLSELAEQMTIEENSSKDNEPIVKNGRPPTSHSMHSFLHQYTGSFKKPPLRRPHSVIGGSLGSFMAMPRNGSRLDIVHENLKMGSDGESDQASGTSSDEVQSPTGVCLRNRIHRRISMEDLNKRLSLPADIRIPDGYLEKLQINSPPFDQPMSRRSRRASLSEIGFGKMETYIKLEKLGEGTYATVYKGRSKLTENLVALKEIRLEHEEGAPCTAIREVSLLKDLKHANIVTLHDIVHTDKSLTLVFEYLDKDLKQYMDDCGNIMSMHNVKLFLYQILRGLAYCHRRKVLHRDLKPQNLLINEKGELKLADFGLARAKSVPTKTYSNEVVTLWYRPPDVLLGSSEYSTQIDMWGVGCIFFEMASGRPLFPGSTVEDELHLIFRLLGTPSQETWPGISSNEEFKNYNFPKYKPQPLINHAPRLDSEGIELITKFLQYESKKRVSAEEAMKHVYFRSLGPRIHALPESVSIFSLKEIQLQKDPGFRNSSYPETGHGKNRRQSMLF
# [7] = target: T2, Myotonin-protein kinase (Homo sapiens) (UniProt Q09013); experiment: Inhibition of DMPK1 K2 labeling site in human Huh-7 cells at 1 uM by KiNativ Profiling analysis relative to control; format: cell-based
# T2 sequence (whole entry): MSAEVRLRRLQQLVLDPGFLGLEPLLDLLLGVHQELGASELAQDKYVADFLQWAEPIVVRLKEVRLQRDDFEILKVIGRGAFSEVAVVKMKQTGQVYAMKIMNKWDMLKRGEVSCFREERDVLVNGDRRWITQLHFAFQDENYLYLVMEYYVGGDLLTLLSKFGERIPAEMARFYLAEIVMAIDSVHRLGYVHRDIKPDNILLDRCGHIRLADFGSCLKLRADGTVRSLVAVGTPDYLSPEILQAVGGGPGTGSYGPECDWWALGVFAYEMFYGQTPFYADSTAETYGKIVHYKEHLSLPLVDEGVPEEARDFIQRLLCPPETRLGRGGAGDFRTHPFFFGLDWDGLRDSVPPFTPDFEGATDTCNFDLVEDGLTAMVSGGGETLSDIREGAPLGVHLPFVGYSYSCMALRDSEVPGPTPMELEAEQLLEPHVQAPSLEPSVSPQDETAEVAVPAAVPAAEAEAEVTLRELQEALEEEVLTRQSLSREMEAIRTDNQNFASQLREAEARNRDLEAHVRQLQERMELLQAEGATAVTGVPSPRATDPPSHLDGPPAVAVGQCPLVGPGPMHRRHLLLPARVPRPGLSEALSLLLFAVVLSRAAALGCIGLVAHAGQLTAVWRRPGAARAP
# [8] = target: Misshapen-like kinase 1 (Homo sapiens) (UniProt Q8N4C8); experiment: Inhibition of MINK (unknown origin) at 10 uM by Ambit Kinomescan binding assay
# Sequence of Misshapen-like kinase 1 (Homo sapiens) (Q8N4C8 whole entry, looked up): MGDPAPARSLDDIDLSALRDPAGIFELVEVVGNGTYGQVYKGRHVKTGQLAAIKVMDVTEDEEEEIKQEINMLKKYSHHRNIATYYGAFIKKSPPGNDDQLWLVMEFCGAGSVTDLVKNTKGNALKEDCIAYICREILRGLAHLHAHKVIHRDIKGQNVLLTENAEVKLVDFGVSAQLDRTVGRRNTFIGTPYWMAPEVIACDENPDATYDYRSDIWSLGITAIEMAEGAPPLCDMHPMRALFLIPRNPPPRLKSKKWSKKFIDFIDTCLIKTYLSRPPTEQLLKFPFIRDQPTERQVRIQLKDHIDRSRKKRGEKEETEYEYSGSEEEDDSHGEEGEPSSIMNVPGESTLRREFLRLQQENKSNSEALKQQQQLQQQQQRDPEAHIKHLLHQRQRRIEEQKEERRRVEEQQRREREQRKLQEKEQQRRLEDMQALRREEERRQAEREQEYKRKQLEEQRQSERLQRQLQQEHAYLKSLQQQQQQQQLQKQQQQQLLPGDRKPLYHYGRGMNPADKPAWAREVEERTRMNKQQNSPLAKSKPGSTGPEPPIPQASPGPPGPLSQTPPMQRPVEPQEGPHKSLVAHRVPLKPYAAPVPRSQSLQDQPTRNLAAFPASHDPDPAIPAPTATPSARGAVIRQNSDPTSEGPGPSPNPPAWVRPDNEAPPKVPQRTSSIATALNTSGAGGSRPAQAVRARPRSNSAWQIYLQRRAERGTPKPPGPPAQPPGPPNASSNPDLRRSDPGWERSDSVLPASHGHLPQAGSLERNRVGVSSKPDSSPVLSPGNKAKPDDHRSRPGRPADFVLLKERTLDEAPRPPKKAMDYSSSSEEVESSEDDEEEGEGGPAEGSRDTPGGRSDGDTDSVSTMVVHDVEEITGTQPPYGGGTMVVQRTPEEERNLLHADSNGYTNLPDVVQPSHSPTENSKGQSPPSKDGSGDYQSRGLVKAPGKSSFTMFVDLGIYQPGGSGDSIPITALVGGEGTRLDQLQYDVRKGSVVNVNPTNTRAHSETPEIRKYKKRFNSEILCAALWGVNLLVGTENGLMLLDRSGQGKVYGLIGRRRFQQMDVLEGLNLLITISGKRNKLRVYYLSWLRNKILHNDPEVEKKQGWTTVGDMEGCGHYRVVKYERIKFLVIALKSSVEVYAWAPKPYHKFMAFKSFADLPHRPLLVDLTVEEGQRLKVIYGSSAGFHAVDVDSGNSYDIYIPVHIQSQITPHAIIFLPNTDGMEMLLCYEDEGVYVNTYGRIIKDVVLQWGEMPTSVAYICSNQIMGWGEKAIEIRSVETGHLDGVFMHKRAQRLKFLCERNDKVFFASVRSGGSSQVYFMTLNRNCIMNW
# [9] = target: T3, Serine/threonine-protein kinase 3 (Homo sapiens) (UniProt Q13188); experiment: Inhibition of MST2 Lys2 labeling site harbouring IHRDIKAGNILLNTEGHAK in human Huh-7 cells at 1 uM by KiNativ Profiling analysis relative to control; format: cell-based
# T3 sequence (whole entry): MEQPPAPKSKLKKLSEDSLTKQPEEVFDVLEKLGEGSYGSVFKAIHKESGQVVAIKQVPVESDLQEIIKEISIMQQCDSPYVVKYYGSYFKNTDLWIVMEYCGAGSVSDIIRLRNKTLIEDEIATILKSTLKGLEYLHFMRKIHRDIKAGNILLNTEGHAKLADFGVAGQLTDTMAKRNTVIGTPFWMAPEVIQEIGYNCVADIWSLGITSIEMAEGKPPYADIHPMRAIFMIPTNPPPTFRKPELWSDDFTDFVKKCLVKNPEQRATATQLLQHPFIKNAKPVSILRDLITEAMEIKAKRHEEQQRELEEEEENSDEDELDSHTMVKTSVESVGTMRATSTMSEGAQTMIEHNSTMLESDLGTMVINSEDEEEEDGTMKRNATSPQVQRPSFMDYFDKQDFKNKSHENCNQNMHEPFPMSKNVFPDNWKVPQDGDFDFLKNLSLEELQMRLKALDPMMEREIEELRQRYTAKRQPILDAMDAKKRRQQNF
# [10] = target: Ribosomal protein S6 kinase alpha-1 (Homo sapiens) (UniProt Q15418); experiment: Inhibition of RSK1 domain2 Lys2 labeling site in human Huh-7 cell lysate at 1 uM by KiNativ Profiling analysis relative to control; format: subcellular
# Sequence of Ribosomal protein S6 kinase alpha-1 (Homo sapiens) (Q15418 whole entry, the tested form may be a part): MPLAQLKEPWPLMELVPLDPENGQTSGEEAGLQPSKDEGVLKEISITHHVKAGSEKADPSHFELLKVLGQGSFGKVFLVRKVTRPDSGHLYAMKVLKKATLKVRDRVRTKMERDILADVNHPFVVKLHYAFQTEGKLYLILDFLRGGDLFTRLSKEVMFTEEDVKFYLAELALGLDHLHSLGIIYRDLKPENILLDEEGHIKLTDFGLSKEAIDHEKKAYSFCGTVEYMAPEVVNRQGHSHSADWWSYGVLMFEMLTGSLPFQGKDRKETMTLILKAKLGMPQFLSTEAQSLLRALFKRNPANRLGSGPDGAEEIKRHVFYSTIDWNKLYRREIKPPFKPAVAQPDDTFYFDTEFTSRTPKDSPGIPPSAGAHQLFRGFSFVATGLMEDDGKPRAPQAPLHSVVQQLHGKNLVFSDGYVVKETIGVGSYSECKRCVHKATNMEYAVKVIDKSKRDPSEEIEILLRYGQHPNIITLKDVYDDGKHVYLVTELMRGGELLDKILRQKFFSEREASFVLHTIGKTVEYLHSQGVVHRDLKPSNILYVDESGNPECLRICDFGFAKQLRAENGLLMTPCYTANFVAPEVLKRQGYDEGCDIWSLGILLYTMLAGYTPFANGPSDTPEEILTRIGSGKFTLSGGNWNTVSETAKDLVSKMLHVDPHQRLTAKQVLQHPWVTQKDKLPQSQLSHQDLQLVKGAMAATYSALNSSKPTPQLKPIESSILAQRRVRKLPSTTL
# [11] = target: Serine/threonine-protein kinase MARK2 (Homo sapiens) (UniProt Q7KZI7); experiment: Inhibition of MARK2 Lys2 labeling site harbouring DLKAENLLLDADMNIK in human Huh-7 cells at 1 uM by KiNativ Profiling analysis relative to control; format: cell-based
# Sequence of Serine/threonine-protein kinase MARK2 (Homo sapiens) (Q7KZI7 whole entry): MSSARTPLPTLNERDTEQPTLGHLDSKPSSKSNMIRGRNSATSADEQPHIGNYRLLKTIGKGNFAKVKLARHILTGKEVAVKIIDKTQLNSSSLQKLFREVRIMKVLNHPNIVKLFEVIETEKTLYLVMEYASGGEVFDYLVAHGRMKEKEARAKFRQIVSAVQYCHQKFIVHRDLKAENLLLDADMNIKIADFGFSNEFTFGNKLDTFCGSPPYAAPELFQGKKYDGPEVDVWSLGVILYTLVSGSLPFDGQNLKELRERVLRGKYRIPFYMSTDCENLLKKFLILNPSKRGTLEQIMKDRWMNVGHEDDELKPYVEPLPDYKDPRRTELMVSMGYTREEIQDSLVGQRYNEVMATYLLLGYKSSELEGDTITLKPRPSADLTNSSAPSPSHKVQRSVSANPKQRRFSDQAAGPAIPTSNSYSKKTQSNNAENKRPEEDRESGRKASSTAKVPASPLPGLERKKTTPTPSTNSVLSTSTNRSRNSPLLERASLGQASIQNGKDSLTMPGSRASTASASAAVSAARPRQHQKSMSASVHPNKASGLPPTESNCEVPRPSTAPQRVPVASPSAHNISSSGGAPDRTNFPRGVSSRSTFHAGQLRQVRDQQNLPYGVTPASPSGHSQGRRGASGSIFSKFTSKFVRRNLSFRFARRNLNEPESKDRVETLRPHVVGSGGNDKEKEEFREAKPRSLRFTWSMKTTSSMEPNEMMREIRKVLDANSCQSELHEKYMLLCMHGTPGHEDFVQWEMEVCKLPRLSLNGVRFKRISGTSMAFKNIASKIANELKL
smiles,measurement,setting,value
CCN1CCN(Cc2ccc(NC(=O)c3ccc(C)c(/C=C/c4cnc5[nH]ccc5c4OC)c3)cc2C(F)(F)F)CC1,inhibition,[1],-3.7%
same,inhibition,[2],1.7%
same,residual activity,[3],100%
same,inhibition,[4],100%
same,residual activity,[5],100%
CCN1CCN(Cc2ccc(NC(=O)c3ccc(C)c(Oc4ccnc5[nH]ccc45)c3)cc2C(F)(F)F)CC1,inhibition,[6],41.7%
same,inhibition,[7],-7.6%
same,inhibition,[8],inactive
CNc1cc(Oc2cc(C(=O)Nc3cc(N4CCN(C)CC4)cc(C(F)(F)F)c3)ccc2C)ncn1,inhibition,[9],-0.8%
same,inhibition,[10],-2%
same,inhibition,[11],19.4%
